Experimental data published in patent publication US20140031217A1, “HERBICIDAL COMPOSITIONS COMPRISING 4-AMINO-3-CHLORO-5-FLUORO-6-(4-CHLORO-2-FLUORO-3-METHOXYPHENYL)PYRIDINE-2-CARBOXYLIC ACID OR A DERIVATIVE THEREOF AND AUXIN TRANSPORT INHIBITORS” (DOW AGROSCIENCES LLC, priority 2012, published 2014).

Columns and labels:
[1] = test system: ECHCG; test: In-water applied (paddy) greenhouse weed control, ECHCG; type: in vivo, Echinochloa crusgalli (L.) Beauv.
Method: (§1) Weed seeds or nutlets of the desired test plant species were planted in puddled soil (mud) prepared by mixing a shredded, non-sterilized mineral soil (50.5 percent silt, 25.5 percent clay, and 24 percent sand, with a pH of about 7.6 and an organic matter content of about 2.9 percent) and water at a 1:1 volumetric ratio. The prepared mud was dispensed in 365 mL aliquots into 16-ounce (oz.) non-perforated plastic pots with a surface area of 86.59 square centimeters (cm^2) leaving a headspace of 3 centimeters (cm) in each pot. Mud was allowed to dry overnight prior to planting or transplanting. Rice seeds were planted in Sun Gro MetroMix® 306 planting mixture, which typically has a pH of 6.0 to 6.8 and an organic matter content of about 30 percent, in plastic plug trays. Seedlings at the second or third leaf stage of growth were transplanted into 840 mL of mud contained in 32-oz. non-perforated plastic pots with a surface area of 86.59 cm^2 4 days prior to herbicide application. The paddy was created by filling the headspace of the pots with 2.5 to 3 cm of water. When required to ensure good germination and healthy plants, a fungicide treatment and/or other chemical or physical treatment was applied. The plants were grown for 4-22 days in a greenhouse with an approximate 14 h photoperiod which was maintained at about 29′C during the day and 26° C. during the night. Nutrients were added as Osmocote® (19:6:12, N:P:K+minor nutrients) at 2 g per 16-oz. pot and 4 g per 960-mL 32-oz. pot. Water was added on a regular basis to maintain the paddy flood, and supplemental lighting was provided with overhead metal halide 1000-Watt lamps as necessary. The plants were employed for testing when they reached the second or third true leaf stage.
(§2) Treatments consisted of the acid or esters of 4-amino-3-chloro-5-fluoro-6-(4-chloro-2-fluoro-3-methoxy-phenyl)pyridine-2-carboxylic acid (compound A) each formulated as an SC and various herbicidal components alone and in combination. Forms of compound A were applied on an acid equivalent basis.
(§3) Other herbicidal components were applied on an active ingredient basis and included auxin transport inhibiting (ATI) herbicides chlorflurenol-methyl (technical material), chlorflurenol (technical material), diflufenzopyr (technical material), dilfufenzopyr sodium (technical material), flurenol-methyl (technical material,) and naptalam (technical material).
(§4) Treatment requirements for each compound or herbicidal component were calculated based upon the rates being tested, the concentration of active ingredient or acid equivalent in the formulation, an application volume of 2 mL per component per pot, and an application area of 86.59 cm^2 per pot.
(§5) For formulated compounds, a measured amount was placed in an individual 100 or 200 mL glass vial and was dissolved in a volume of 1.25% (v/v) Agri-Dex® crop oil concentrate to obtain application solutions.
(§6) For technical grade compounds, a weighed amount was placed in an individual 100 to 200 mL glass vial and was dissolved in a volume of acetone to obtain concentrated stock solutions. […] The concentrated stock solutions obtained were diluted with an equivalent volume of an aqueous mixture containing 2.5% (v/v) crop oil concentrate so that the final application solutions contained 1.25% (v/v) crop oil concentrate.
(§7) Applications were made by injecting with a pipetter appropriate amounts of the application solutions, individually and sequentially, into the aqueous layer of the paddy. Control plants were treated in the same manner with the solvent blank. Applications were made so that all treated plant material received the same concentrations of acetone and crop oil concentrate.
(§8) The treated plants and control plants were placed in a greenhouse as described above and water was added as needed to maintain a paddy flood. […]

[2] = test system: FIMMI; test: In-water applied (paddy) greenhouse weed control, FIMMI; type: in vivo, Fimbristylis miliacea (L.) Vahl; conditions: 19 DAA
Method: as §1, §2, §3, §4, §5, §6, §7, §8

Structure (SMILES)	Visual Weed Control (%) Obs ([1]; 20 DAA, 17.5 gae/ha)	Visual Weed Control (%) Obs ([1]; 20 DAA, 35 gae/ha)	Visual Weed Control (%) Obs ([1]; 22 DAA, 8.75 gae/ha)	Visual Weed Control (%) Obs ([1]; 22 DAA, 17.5 gae/ha)	Visual Weed Control (%) Obs ([1]; 22 DAA, 35 gae/ha)	Visual Weed Control (%) Obs ([2]; 8 gae/ha)	Visual Weed Control (%) Obs ([2]; 16 gae/ha)	Visual Weed Control (%) Obs ([2]; 32 gae/ha)	Visual Weed Control (%) Obs ([1]; 19 DAA, 8 gae/ha)	Visual Weed Control (%) Obs ([1]; 19 DAA, 16 gae/ha)	Visual Weed Control (%) Obs ([1]; 19 DAA, 32 gae/ha)	Visual Weed Control (%) Obs ([1]; 20 DAA, 4.38 gae/ha)	Visual Weed Control (%) Obs ([1]; 22 DAA, 4.38 gae/ha)
COc1c(Cl)ccc(-c2nc(C(=O)O)c(Cl)c(N)c2F)c1F [Compound A Acid, 4-amino-3-chloro-6-(4-chloro-2-fluoro-3-methoxyphenyl)-5-fluoropyridine-2-carboxylic acid]	50%	95%	0%	15%	15%	–	–	–	–	–	–	–	–
COc1c(Cl)ccc(-c2nc(C(=O)OCc3ccccc3)c(Cl)c(N)c2F)c1F [Compound A Benzyl Ester]	–	–	25%	60%	–	0%	0%	85%	30%	20%	40%	40%	10%
